Measurements published in the NIST ThermoML archive (doi:10.1021/je700266n).

What was measured:
[1] = xn = mol fraction of the nth substance listed; settings: 101 kPa, Liquid
[2] = 101 kPa, Liquid

CCCCn1cc[n+](C)c1.F[B-](F)(F)F [1-butyl-3-methylimidazolium tetrafluoroborate] + c1ccccc1
mass density [kg/m3], [1]
Settings | 293.15 K | 298.15 K | 303.15 K | 308.15 K | 313.15 K | 323.15 K | 333.15 K | 343.15 K
x1 = 0.4871 | 1105.2 | 1101.28 | 1097.21 | 1093.23 | 1089.58 | 1081.9 | 1073.73 | 1065.72
x1 = 0.5499 | 1120.99 | 1117.14 | 1113.2 | 1109.3 | 1105.72 | 1098.23 | 1090.17 | 1082.51
x1 = 0.5999 | 1132.31 | 1128.5 | 1124.57 | 1120.71 | 1117.22 | 1109.81 | 1101.75 | 1094.35
x1 = 0.7001 | 1151.84 | 1148.13 | 1144.26 | 1140.47 | 1137.04 | 1129.83 | 1121.95 | 1114.7
x1 = 0.8 | 1168.73 | 1165.02 | 1161.24 | 1157.48 | 1154.13 | 1147.03 | 1139.28 | 1132.17
x1 = 0.899 | 1182.8 | 1179.15 | 1175.38 | 1171.67 | 1168.35 | 1161.36 | 1153.64 | 1146.64
x1 = 0.9498 | 1189.44 | 1185.85 | 1182.12 | 1178.45 | 1175.16 | 1168.19 | 1160.54 | 1153.58
x1 = 1 | 1195.71 | 1192.07 | 1188.37 | 1184.72 | 1181.43 | 1174.49 | 1166.89 | 1159.97

CC#N [acetonitrile]
[2]
Settings | mass density [kg/m3]
293.15 K | 782.3
298.15 K | 776.93
303.15 K | 771.44
308.15 K | 765.97
313.15 K | 760.68
323.15 K | 749.73
333.15 K | 738.19
343.15 K | 726.94

CC#N [acetonitrile] + CCCCn1cc[n+](C)c1.F[B-](F)(F)F
[1], x2 = 0
Settings | mass density [kg/m3]
293.15 K | 782.3
298.15 K | 776.93
303.15 K | 771.44
308.15 K | 765.97
313.15 K | 760.68
323.15 K | 749.73
333.15 K | 738.19
343.15 K | 726.94

CC#N [acetonitrile] + CCCCn1cc[n+](C)c1.F[P-](F)(F)(F)(F)F
[1], x2 = 0
Settings | mass density [kg/m3]
293.15 K | 782.3
298.15 K | 776.93
303.15 K | 771.44
308.15 K | 765.97
313.15 K | 760.68
323.15 K | 749.73
333.15 K | 738.19
343.15 K | 726.94

c1ccccc1 [benzene]
[2]
Settings | mass density [kg/m3]
293.15 K | 878.23
298.15 K | 873.11
303.15 K | 867.59
308.15 K | 862.21
313.15 K | 856.82
323.15 K | 846.05
333.15 K | 835.76
343.15 K | 824.89

c1ccccc1 [benzene] + CCCCn1cc[n+](C)c1.F[B-](F)(F)F
[1], x2 = 0
Settings | mass density [kg/m3]
293.15 K | 878.23
298.15 K | 873.11
303.15 K | 867.59
308.15 K | 862.21
313.15 K | 856.82
323.15 K | 846.05
333.15 K | 835.76
343.15 K | 824.89

c1ccccc1 [benzene] + CCCCn1cc[n+](C)c1.F[P-](F)(F)(F)(F)F
[1], x2 = 0
Settings | mass density [kg/m3]
293.15 K | 878.23
298.15 K | 873.11
303.15 K | 867.59
308.15 K | 862.21
313.15 K | 856.82
323.15 K | 846.05
333.15 K | 835.76
343.15 K | 824.89

CCCO [propan-1-ol]
[2]
Settings | mass density [kg/m3]
293.15 K | 804.97
298.15 K | 801.01
303.15 K | 796.89
308.15 K | 792.83
313.15 K | 789.07
323.15 K | 780.74
333.15 K | 771.75
343.15 K | 762.86

CCCO [propan-1-ol] + CCCCn1cc[n+](C)c1.F[B-](F)(F)F
[1], x2 = 0
Settings | mass density [kg/m3]
293.15 K | 804.97
298.15 K | 801.01
303.15 K | 796.89
308.15 K | 792.83
313.15 K | 789.07
323.15 K | 780.74
333.15 K | 771.75
343.15 K | 762.86
